From ChEMBL document CHEMBL3608238, “Coronaridine, an iboga type alkaloid from Tabernaemontana divaricata, inhibits the Wnt signaling pathway by decreasing β-catenin mRNA expression” (Bioorg Med Chem Lett, 2015) come the findings set out here.

The subject of experiment [1] is SW480. Description: Inhibition of Wnt/beta-catenin in human SW480 cells assessed as beta-catenin phosphorylation at Ser33/Ser37/Thr40 at 10 to 40 uM after 24 hrs by Western blot analysis. The format is cell-based.
Experiment [2] concerns SW480. Briefly: Cytotoxicity against Wnt-dependent human SW480 cells assessed as cell viability after 24 hrs by fluorescence assay. The conditions noted are these: SW480, 24 h. The experiment is classed as functional, cell-based.
Experiment [3] is described as follows: (§1) Inhibition of Wnt/beta-catenin in human STF/293 cells assessed as inhibition of TCF/beta catenin transcription after 24 hrs by SuperTOPFlash reporter gene assay. The format is cell-based. The conditions noted are these: STF/293, 24 h.
Another experiment has as its system STF/293. The description is as §1. The format is cell-based.
The subject of experiment [4] is HEK-293T. Description: Cytotoxicity against HEK293T cells assessed as cell viability after 24 hrs by fluorescence assay. The experiment is classed as cell-based. The conditions noted are these: Homo sapiens.
Experiment [5] concerns SW480. Description: Inhibition of Wnt/beta-catenin in human SW480 cells assessed as beta-catenin phosphorylation at Ser45 at 10 to 40 uM after 24 hrs by Western blot analysis. The experiment is classed as cell-based.
Experiment [6] in a line: Cytotoxicity against Wnt-dependent human DLD1 cells assessed as cell viability after 24 hrs by fluorescence assay. The experiment is classed as functional, cell-based. The conditions noted are these: DLD-1, 24 h.
For experiment [7], the system named is HEK-293T. Description: Inhibition of Wnt/beta-catenin in HEK293T cells assessed as inhibition of TCF/beta catenin transcription at 5 to 20 uM after 24 hrs by SuperFOPFlash reporter gene assay. The conditions noted are these: Homo sapiens. The format is cell-based.
The subject of experiment [8] is SW480. Description: Inhibition of Wnt/beta-catenin in proteasome inhibitor MG132 pretreated human SW480 cells assessed as decrease in beta-catenin level at 40 uM co-treated with MG132 for 12 hrs by Western blot analysis. The experiment is classed as cell-based.
Another experiment has as its system HCT-116. Briefly: Cytotoxicity against Wnt-dependent human HCT116 cells assessed as cell viability after 24 hrs by fluorescence assay. The format is functional, cell-based. The conditions noted are these: HCT-116, 24 h.
Experiment [9] has as its system SW480. Briefly: Inhibition of Wnt/beta-catenin in human SW480 cells assessed as decrease in nuclear beta-catenin level at 10 to 40 uM after 24 hrs by Western blot analysis. The experiment is classed as cell-based.
Another experiment concerns RKO. Briefly: Cytotoxicity against Wnt-independent human RKO cells assessed as cell viability after 24 hrs by fluorescence assay. The format is cell-based.
The test system of experiment [10] is SW480. Description: Inhibition of Wnt/beta-catenin in human SW480 cells assessed as decrease in beta-catenin mRNA level at 40 uM by real time RT-PCR analysis. The format is cell-based.
The test system of the next experiment is HEK293. Description: Cytotoxicity against HEK293 cells assessed as cell viability after 24 hrs by fluorescence assay. The experiment is classed as cell-based. The conditions noted are these: Homo sapiens, HEK293, 24 h.
Experiment [11] concerns SW480. Description: Effect on CK1alpha expression in human SW480 cells at 10 to 40 uM after 24 hrs by Western blot analysis. The experiment is classed as functional, cell-based.
In experiment [12] the test system is SW480. Description: Inhibition of Wnt/beta-catenin in human SW480 cells assessed as decrease in cytosolic beta-catenin level at 10 to 40 uM after 24 hrs by Western blot analysis. The experiment is classed as cell-based.
Experiment [13] concerns SW480. Briefly: Effect on GSK3beta expression in human SW480 cells at 10 to 40 uM after 24 hrs by Western blot analysis. The experiment is classed as functional, cell-based.
The test system of experiment [14] is HEK-293T. Briefly: Inhibition of Wnt/beta-catenin in HEK293T cells assessed as inhibition of TCF/beta catenin transcription at 10 to 40 uM after 24 hrs by SuperFOPFlash reporter gene assay. The format is cell-based. The conditions noted are these: Homo sapiens.

SMILES strings stand for the structures. pIC50: −log10 of the molar value. Active and inactive are the calls of the source. The rule behind the calls is not given here.

For the compound `CC[C@H]1C[C@@H]2CN3CCc4c([nH]c5ccccc45)[C@](C(=O)OC)(C2)[C@H]13` [CORONARIDINE], the inhibition entry with SW480 [1] and with SW480 [5] was “inactive” throughout. In addition, the pIC50 in the experiment with SW480 [2] is 4.98; in [3] it was 5.24; in the experiment on HEK-293T [4], less than 4.40; in experiment [6] it was 4.61; with HCT-116, 4.94; with RKO, less than 4.40. Besides, the pIC50 in the experiment with HEK293 is 4.50. Besides, the inhibition entry in the experiment on STF/293 was “Dose-dependent effect”. In addition, the inhibition result with HEK-293T [7], with SW480 [8], with SW480 [9], in the experiment with SW480 [10] and in the experiment with SW480 [12] was “Active” each time. The result in the experiment with SW480 [11] and in the experiment with SW480 [13] was inactive.
For the compound `CC[C@H]1C[C@@H]2CN3CC[C@]4(O)C(=Nc5ccccc54)[C@](C(=O)OC)(C2)[C@H]13` [CORONARIDINE HYDROXYINDOLENINE], the pIC50 in the experiment on SW480 [2] is less than 4.40; in experiment [3] it was 5.14; in the experiment on HEK-293T [4] it was less than 4.40; in experiment [6], less than 4.40; in the experiment with HCT-116 it was less than 4.40; with RKO, less than 4.40. In addition, the negative logarithm of the IC50 (pIC50) in the experiment on HEK293 was less than 4.40. The inhibition entry in the experiment with STF/293 is “Dose-dependent effect”. For the same compound, the inhibition entry in the experiment on HEK-293T [7] was “Active”.
`CC[C@H]1C[C@@H]2CN3CCc4c([nH]c5ccc(OC)cc45)[C@](C(=O)OC)(C2)[C@H]13` [VOACANGINE]: the negative logarithm of the IC50 (pIC50) in the experiment on SW480 [2] is less than 4.40; in experiment [3] it was 4.94; in the experiment with HEK-293T [4] it was less than 4.40; in [6], less than 4.40; with HCT-116, less than 4.40; in the experiment with RKO, less than 4.40. For the same compound, the pIC50 with HEK293 is less than 4.40. For the same compound, in the experiment on STF/293, the inhibition result was “Dose-dependent effect”. Moreover, in the experiment on HEK-293T [14], the inhibition entry was “inactive”.
Turning to `CC[C@H]1C[C@@H]2CN3CCc4c([nH]c5cc(OC)ccc45)[C@](C(=O)OC)(C2)[C@H]13` [ISOVOACANGINE], the pIC50 was 4.95 in the experiment on SW480 [2]; 5.22 in [3]; less than 4.40 with HEK-293T [4]; less than 4.40 in experiment [6]; 4.61 with HCT-116; less than 4.40 with RKO. Further, in the experiment with HEK293, the pIC50 is 4.45. Further, the inhibition result in the experiment on STF/293 was “Dose-dependent effect”. Besides, in the experiment with HEK-293T [7], the inhibition result was “Active”.
